Laboratory results reported in patent US9271993B2, “Treatment of bacterial infectious diseases” (priority 2010, dated 2016).
Converted amounts (≈) assume the structure as drawn. Read-outs that look alike come from different tables or passages of the source.

Columns and labels:
M. kansasii = assay: Drug susceptibility of non-tuberculous slow-growing mycobacteria, MGIT960; type: cell-based
mitohybrid ribosomes = assay: Ribosomal drug susceptibility (MIC) of recombinant bacteria; set-up: MIC, mitohybrid ribosomes: unit not given beside the values
M. avium-intracellulare = assay: Drug susceptibility of non-tuberculous slow-growing mycobacteria, MGIT960; type: cell-based
cytohybrid ribosomes = assay: Ribosomal drug susceptibility (MIC) of recombinant bacteria; set-up: MIC, cytohybrid ribosomes: unit not given beside the values
[1] = guinea pig
Description: “Treshold shift” is the difference in auditory threshold before and three weeks after treatment.
Guinea pigs received a systemic application of aminoglycosides once daily in the dosing indicated for 14 days, and were allowed to rest for 14 days before post-treatment ABR was taken.

E. coli = assay: MIC against gram-negative bacteria; type: cell-based; conditions: Escherichia coli, read-out: MIC
Text: Agents Chemother. 2003, 47:1496-1502.

[2] = tested on: Cochlear explants from newborn mice; assay: Cochleatoxicity in vitro, hair cell loss in cochlear explants; type: cell-based
Description: FIG. 1: Cochleatoxicity in vitro
(a) Dose-response relationship of drug-induced hair cell loss in cochlear explants. Hair cell loss was quantified along the entire length of the explant and plotted against drug concentration. %=% outer hair cells missing.
Cochlear explants from newborn mice were treated with 0.5 mM aminoglycoside compound for 24 h; subsequently hair cell damage was assessed by epifluorescence microscopy.

[3] = tested on: clinical methicillin resistant Staphylococcus aureus (MRSA) isolates; assay: MIC against clinical MRSA isolates, LB microdilution assay; conditions: Staphylococcus aureus, MRSA
Description: Activity was assessed by determination of minimal inhibitory concentrations (MIC), as described in Pfister et al., Antimicrob. […] Cultures from single colonies were grown in LB medium and used for MIC tests in a microtiter plate format. Starting cultures contained 200 μl of bacterial cells at an optical density of 0.025 at 600 nm, and the respective drug was added in twofold series of dilution.

M. bolletii = assay: MIC against non-tuberculous rapidly-growing mycobacteria, microdilution; type: cell-based; conditions: Mycobacteroides abscessus, read-out: minimal inhibitory concentration (MIC)
Description: (§1) Activity of apramycin was assessed in standard microdilution assays and is expressed as minimal inhibitory concentration (MIC) in μg/ml.

M. massiliense = assay: as above; type: cell-based; conditions: Mycobacteroides abscessus, read-out: minimal inhibitory concentration (MIC)
Description: as §1

M. abscessus = assay: as above; type: cell-based; conditions: Mycobacteroides abscessus; strain 500039/08 M. abscessus; read-out: minimal inhibitory concentration (MIC)
Description: as §1

bacterial ribosomes = assay: Ribosomal drug susceptibility (MIC) of recombinant bacteria; set-up: MIC, bacterial ribosomes: unit not given beside the values
[4] = General toxicity in guinea pigs; type: in vivo; conditions: for observations (general toxicity): once daily for 14 days, monitored additional 14 days
Description: Guinea pigs received a systemic application of aminoglycosides once daily in the dosing indicated in Table 9 for 14 days and were then monitored for an additional 14 days.

Q: For `CNC1C(OC2OC(CO)C(N)C(O)C2O)OC2CC(N)C(OC3C(N)CC(N)C(O)C3O)OC2C1O` (stereo not shown) [Apramycin], which “Activity (resistant/susceptible)” value (M. kansasii; strain 177227/06 M. kansasii, 1 μg/ml) is on record?
A: R

Q: And the “Activity (resistant/susceptible)” value (M. kansasii; strain 177227/06 M. kansasii, 4 μg/ml)?
A: S

Q: And the “Activity (resistant/susceptible)” value (M. kansasii; strain 177227/06 M. kansasii, 10 μg/ml)?
A: S

Q: And the “Activity (resistant/susceptible)” value (M. kansasii; strain 180235/06 M. kansasii, 1 μg/ml)?
A: R

Q: And the “Activity (resistant/susceptible)” value (M. kansasii; strain 180235/06 M. kansasii, 4 μg/ml)?
A: S

Q: What about the “Activity (resistant/susceptible)” value (M. kansasii; strain 180235/06 M. kansasii, 10 μg/ml) of the same compound?
A: S

Q: What about the “MIC, mitohybrid ribosomes” value (mitohybrid ribosomes; Table 7, 72 h incubation) of the same compound?
A: 1024

Q: What about the “MIC, bacteria with mitohybrid ribosome” value (mitohybrid ribosomes; Table 10) of the same compound?
A: >256.0 mg/L

Q: What about the “Activity (resistant/susceptible)” value (M. avium-intracellulare; strain 182034/06 M. avium-intracellulare, 1 μg/ml) of the same compound?
A: R

Q: What about the “Activity (resistant/susceptible)” value (M. avium-intracellulare; strain 182034/06 M. avium-intracellulare, 4 μg/ml) of the same compound?
A: S

Q: What about the “Activity (resistant/susceptible)” value (M. avium-intracellulare; strain 182034/06 M. avium-intracellulare, 10 μg/ml) of the same compound?
A: S

Q: And the “Activity (resistant/susceptible)” value (M. avium-intracellulare; strain 182124/07 M. avium-intracellulare, 1 μg/ml)?
A: R

Q: What about the “Activity (resistant/susceptible)” value (M. avium-intracellulare; strain 182124/07 M. avium-intracellulare, 4 μg/ml) of the same compound?
A: S

Q: What about the “Activity (resistant/susceptible)” value (M. avium-intracellulare; strain 182124/07 M. avium-intracellulare, 10 μg/ml) of the same compound?
A: S

Q: What about the “Activity (resistant/susceptible)” value (M. avium-intracellulare; strain 182550/07 M. avium-intracellulare, 1 μg/ml) of the same compound?
A: R

Q: What about the “Activity (resistant/susceptible)” value (M. avium-intracellulare; strain 182550/07 M. avium-intracellulare, 4 μg/ml) of the same compound?
A: S

Q: What about the “Activity (resistant/susceptible)” value (M. avium-intracellulare; strain 182550/07 M. avium-intracellulare, 10 μg/ml) of the same compound?
A: S

Q: What about the “MIC, cytohybrid ribosomes” value (cytohybrid ribosomes; Table 7, 72 h incubation) of the same compound?
A: >1024

Q: And the “MIC, bacteria with cytohybrid ribosome” value (cytohybrid ribosomes; Table 10)?
A: >256.0 mg/L

Q: And the “in vivo auditory response (auditory brain stem response, threshold shift at 12 kHz)” value [1]?
A: substantially less affected

Q: And the MIC (E. coli; E. coli AG01, clin. isol. (Gm^S))?
A: 16 mg/L (≈ 29.7 µM)

Q: And the MIC (E. coli; E. coli AG02, clin. isol (Gm^S))?
A: 16 to 32 mg/L (≈ 29.7 to 59.3 µM)

Q: And the MIC (E. coli; E. coli AG03, clin. isol (Gm^R))?
A: 16 to 32 mg/L (≈ 29.7 to 59.3 µM)

Q: What about the MIC (E. coli; E. coli AG06, BM13) of the same compound?
A: 4 mg/L (≈ 7.41 µM)

Q: And the MIC (E. coli; E. coli AG07, BM13/pIP135, resistance mechanism AAC(3))?
A: 8 mg/L (≈ 14.8 µM)

Q: What about the MIC (E. coli; E. coli AG08, BM13/pIP055, resistance mechanism ANT(2″)) of the same compound?
A: 4 mg/L (≈ 7.41 µM)

Q: What about the MIC (E. coli; E. coli AG09, AAC(6′)-1B, resistance mechanism AAC(6′)) of the same compound?
A: 8 mg/L (≈ 14.8 µM)

Q: And the MIC (E. coli; E. coli AG36, HB101/pAT197, resistance mechanism ANT(4′))?
A: 4 mg/L (≈ 7.41 µM)

Q: And the MIC (E. coli; E. coli AG37, HB101/pAG21-1, resistance mechanism APH(3′))?
A: 4 mg/L (≈ 7.41 µM)

Q: What about the “In vitro cochleatoxicity (drug-induced hair cell loss in cochlear explants, dose-response)” value [2] of the same compound?
A: significantly less than that of gentamicin

Q: What about the Hair cell count ([2]; mouse, 24 h, 0.5 mM) of the same compound?
A: no hair cells missing (<5%)

Q: What about the “inner and outer hair cells missing / lost” value ([2]; mouse, 24 h, 0.5 mM) of the same compound?
A: < 5%

Q: What about the MIC ([3]; MRSA AG038, strain 70-26S Gm^S) of the same compound?
A: 8 mg/L (≈ 14.8 µM)

Q: What about the MIC ([3]; MRSA AG040, strain 87-26S Gm^S) of the same compound?
A: 8 mg/L (≈ 14.8 µM)

Q: What about the MIC ([3]; MRSA AG041, strain 98-25S Gm^S) of the same compound?
A: 8 mg/L (≈ 14.8 µM)

Q: And the MIC ([3]; MRSA AG042, strain 101-06R Gm^R)?
A: 8 mg/L (≈ 14.8 µM)

Q: What about the MIC ([3]; MRSA AG043, strain 01-08R Gm^R) of the same compound?
A: 16 to 32 mg/L (≈ 29.7 to 59.3 µM)

Q: What about the MIC ([3]; MRSA AG044, strain 07-12R Gm^R) of the same compound?
A: 16 mg/L (≈ 29.7 µM)

Q: What about the MIC ([3]; MRSA AG045, strain 08-12R Gm^R) of the same compound?
A: 8 to 16 mg/L (≈ 14.8 to 29.7 µM)

Q: And the MIC ([3]; MRSA AG046, strain 12-06R Gm^R)?
A: 8 to 16 mg/L (≈ 14.8 to 29.7 µM)

Q: What about the MIC ([3]; MRSA AG047, strain 18-06R Gm^R) of the same compound?
A: 8 to 16 mg/L (≈ 14.8 to 29.7 µM)

Q: What about the MIC ([3]; MRSA AG048, strain 20-06R Gm^R) of the same compound?
A: 8 to 16 mg/L (≈ 14.8 to 29.7 µM)

Q: And the MIC ([3]; MRSA AG049, strain 23-12R Gm^R)?
A: 8 to 16 mg/L (≈ 14.8 to 29.7 µM)

Q: What about the MIC ([3]; MRSA AG050, strain 31-06R Gm^R) of the same compound?
A: 4 to 8 mg/L (≈ 7.41 to 14.8 µM)

Q: And the MIC ([3]; MRSA AG051, strain 36-06R Gm^R)?
A: 8 mg/L (≈ 14.8 µM)

Q: And the MIC ([3]; MRSA AG052, strain 53-14I Gm^R)?
A: 8 mg/L (≈ 14.8 µM)

Q: And the MIC ([3]; MRSA AG053, strain 56-06R Gm^R)?
A: 8 mg/L (≈ 14.8 µM)

Q: What about the MIC (M. bolletii; strain 179639/10 M. bolletii) of the same compound?
A: 4 mg/L (≈ 7.41 µM)

Q: What about the MIC (M. bolletii; strain 181739/08 M. bolletii) of the same compound?
A: 4 mg/L (≈ 7.41 µM)

Q: And the MIC (M. bolletii; strain 183177/08 M. bolletii)?
A: 2 mg/L (≈ 3.71 µM)

Q: And the MIC (M. massiliense; strain 177217/10 M. massiliense)?
A: 4 mg/L (≈ 7.41 µM)

Q: And the MIC (M. massiliense; strain 186139/07 M. massiliense)?
A: 4 mg/L (≈ 7.41 µM)

Q: What about the MIC (M. massiliense; strain 500044/09 M. massiliense) of the same compound?
A: 2 mg/L (≈ 3.71 µM)

Q: And the MIC (M. abscessus)?
A: 0.5 mg/L (≈ 0.927 µM)

Q: What about the “MIC, bacterial ribosomes” value (bacterial ribosomes; Table 7, 72 h incubation) of the same compound?
A: 1-2

Q: What about the “MIC, wild type bacteria” value (bacterial ribosomes; Table 10) of the same compound?
A: 1.0 to 2.0 mg/L

Q: What about the “observations (general toxicity)” value ([4]; 152 mg/kg base (132 mg/kg gentamicin base equivalent)) of the same compound?
A: normal weight gain

Q: What about the “observations (general toxicity)” value ([4]; 184 mg/kg base (160 mg/kg gentamicin base equivalent)) of the same compound?
A: normal weight gain

Q: And the “observations (general toxicity)” value ([4]; 217 mg/kg base (188 mg/kg gentamicin base equivalent))?
A: normal weight gain

Q: And the “observations (general toxicity)” value ([4]; 355 mg/kg base (309 mg/kg gentamicin base equivalent))?
A: less weight gain

Q: What about the “Kidney histopathology, interpretation” value ([4]; 432 mg/kg) of the same compound?
A: Mild, multifocal interstitial lymphoplasmacytic inflammation

Q: What about the “observations (general toxicity)” value ([4]; 432 mg/kg base (376 mg/kg gentamicin base equivalent)) of the same compound?
A: less weight gain

Q: What about the “Kidney histopathology, renal mass affected in the sections” value ([4]; 432 mg/kg, lymphoplasmacytic aggregates in the renal interstitium) of the same compound?
A: less than 5%

Q: What about the “Kidney histopathology, interpretation” value ([4]; 649 mg/kg) of the same compound?
A: Mild, multifocal tubular nephrosis

Q: And the “observations (general toxicity)” value ([4]; 649 mg/kg base (564 mg/kg gentamicin base equivalent))?
A: less weight gain

Q: And the “Kidney histopathology, renal mass affected in the sections” value ([4]; 649 mg/kg, foci of tubular degeneration and regeneration in the superficial cortex)?
A: less than 5%

Q: And the “necropsy findings at the end of the experiment” value ([4]; one animal each at 432 and 649 mg/kg)?
A: no significant lesions or gross findings were observed
